Entries after “also recorded” stand apart in the source; their conditions may differ. Where a SMILES comes first, the peptide text is derived from it.
Legend:
[1] = target: NK-1 receptor (Homo sapiens, UniProt P25103); details: cited from earlier work
[2] = target: T1, NK-3 receptor (Homo sapiens, UniProt P29371); details: cited from earlier work
T1 sequence (P29371 1-465): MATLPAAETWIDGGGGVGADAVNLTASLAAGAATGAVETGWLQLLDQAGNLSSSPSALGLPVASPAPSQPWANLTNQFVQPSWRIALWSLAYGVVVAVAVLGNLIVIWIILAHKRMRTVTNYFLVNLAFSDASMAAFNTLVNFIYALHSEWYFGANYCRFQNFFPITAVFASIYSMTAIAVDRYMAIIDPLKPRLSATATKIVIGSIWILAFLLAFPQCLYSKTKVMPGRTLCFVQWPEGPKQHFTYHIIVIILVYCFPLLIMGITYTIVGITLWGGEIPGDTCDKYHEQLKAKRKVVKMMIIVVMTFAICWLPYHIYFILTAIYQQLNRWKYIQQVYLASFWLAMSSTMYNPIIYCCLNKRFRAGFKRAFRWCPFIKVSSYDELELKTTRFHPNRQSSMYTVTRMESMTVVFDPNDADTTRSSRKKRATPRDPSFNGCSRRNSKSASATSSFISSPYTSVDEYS

[3] = tested on: rabbit atrial myocytes; experiment: Action potential recording (perforated patch clamp) in rabbit atrial myocytes; details: increasing concentrations, result in words
Experimental: (§2) Male New Zealand White specified pathogen free rabbits (2.5-3.5 kg) were anaesthetized with a combination of 20 mg xylazine and 100 mg ketamine (intramuscularly) and heparinized with a bolus of 1000 IU heparin (intravenously). Subsequently, the animals were killed by 200 mg pentobarbital intravenously, after which the heart was quickly excised and mounted on a langendorff perfusion apparatus. […] Single atrial cells were isolated from the left atrium using the same protocol with a modification consisting of complementing the enzymatic solution with 6.6 pg/mL protease.
(§3) Small aliquots of single cell suspension were introduced into a recording chamber on the stage of an inverted microscope. Cells were allowed to adhere for 5 minutes after which superfusion was started. Single quiescent rod-shaped myocytes with clear cross-striations and smooth surfaces were selected for measurements.
(§4) Voltage control, data acquisition, and analysis were performed using custom-made software.
(§5) Potentials were corrected for liquid junction potential [3]. Signals were low-pass filtered (cut-off frequency: 5 kHz) and digitized at 40 kHz. Cell membrane capacitance (Cm) was estimated by dividing the decay time constant of the capacitive transient in response to 5 mV hyperpolarizing voltage clamp steps from a holding potential of −40 mV, by the series resistance.
(§6) APs were measured with the amphotericin-B-perforated patch clamp technique using normal Tyrode's solution containing (in mM): NaCl 140, KCl 5.4, CaCl2 1.8, MgCl2 1.0, glucose 5.5, HEPES 5.0, pH 7.4 (NaOH). The patch-pipettes (borosilicate glass; 1-3 MΩ) were filled with a ‘standard’ solution containing (in mM): K-gluconate 110, KCl 30, NaCl 5, MgCl2 1, amphotericin-B 0.22, HEPES 10, pH 7.3 (KOH).
(§7) APs were elicited at 2 Hz by 2-ms (1.5×diastolic stimulation threshold) current pulses applied through the patch pipette. […] Values obtained from 10 consecutive APs were averaged.
(§8) The NK-agonists were applied in a cumulative sequence with 5 minutes intervals between increments in concentration. Effects were assessed after equilibration, but not earlier than 3 minutes after application.

[4] = target: T2, Murine NK3 receptor (Mus musculus, UniProt P47937); details: HEK 293-murine NK3 receptor cells; mean ± SEM; read-out: Ca2+ Mobilization Murine NK3 receptor, EC50; cited from earlier work
T2 construct: expressed in transfected cells; host or cells: HEK 293
T2 sequence (P47937 1-452): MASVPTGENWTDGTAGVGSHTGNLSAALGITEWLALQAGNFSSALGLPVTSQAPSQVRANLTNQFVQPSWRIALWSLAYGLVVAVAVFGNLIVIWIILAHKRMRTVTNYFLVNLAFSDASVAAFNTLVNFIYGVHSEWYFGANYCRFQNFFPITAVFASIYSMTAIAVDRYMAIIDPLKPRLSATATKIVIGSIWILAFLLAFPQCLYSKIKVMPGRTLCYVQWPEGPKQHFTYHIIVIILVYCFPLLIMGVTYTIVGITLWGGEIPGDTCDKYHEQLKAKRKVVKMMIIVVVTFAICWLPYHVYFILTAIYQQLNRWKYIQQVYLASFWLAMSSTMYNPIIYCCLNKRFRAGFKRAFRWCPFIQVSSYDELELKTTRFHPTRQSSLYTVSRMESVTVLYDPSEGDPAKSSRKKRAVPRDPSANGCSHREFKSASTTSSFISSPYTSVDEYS

[5] = tested on: left atrium of anesthetized rabbit; experiment: In vivo left atrial effective refractory period in the anesthetised rabbit; details: single bolus 11 nmol/kg, basic cycle length 220 ms, control 110 ms
Experimental: Male New Zealand White rabbits were anesthetized with ketamine 50 mg/kg and xylazine 8 mg/kg (and additionally 0.09 mg/kg Temgesic for pain relief) subcutaneously, intubated, and artificially ventilated. Anesthesia was maintained by isoflurane (0.8-1.2%). Catheters for drug infusions and blood pressure recording were inserted into marginal ear veins/arteries. Following thoracotomy, the pericardium was opened to expose the heart. A stimulation- and recording-electrode were placed on the left atrium for epicardial electrophysiological study. The left atrium was stimulated at a basic cycle length of 220 ms, and twice the diastolic stimulus current threshold. […] The effective refractory period was defined as the longest S1-S2 interval failing to produce atrial activation. Approximately 30 minutes after the completion of the preparation when the rabbit was hemodynamically and electrophysiologically stable, control measurements were undertaken.

[6] = tested on: ventricle of Langendorff-perfused rabbit heart; experiment: Ventricular effective refractory period in Langendorff-perfused rabbit hearts; details: 20-50 nM Senktide
Experimental: (§1) After the heart was excised, it was cannulated, quickly mounted on a Langendorff perfusion set-up, and perfused at 37° C. with a solution containing (in mmol/L) 128 NaCl, 4.7 KCl, 1.45 CaCl2), 0.6 MgCl2, 27 NaHCO3, 0.4 NaH2PO4, and 11 glucose (pH maintained at 7.4 by equilibration with a mixture of 95% 02 and 5% CO2). The left atrium (ventricle) was stimulated at a basic cycle length of 200 ms, and twice the diastolic stimulus current threshold. […] The effective refractory period was defined as the longest S1-S2 interval failing to produce atrial (ventricular) activation.

[7] = tested on: human left atrial appendage (LAA); experiment: Effective refractory period in human left atrial appendages; details: basic cycle length 600 ms
Excerpt: Left atrial appendages (LAA) were routinely removed from patients with atrial fibrillation receiving PVI (pulmonary vein isolation) ablation. The LAAs were removed using an endoscopic stapling device (Endo Gia stapler, Tyco Healthcare Group). The tissue samples were transported in 100-mL cooled superfusion fluid (Na^+, 155.5 mmol/L; K^+, 4.7 mmol/L; Ca^2+, 1.45 mmol/L; Mg^2+, 0.6 mmol/L; Cl^−, 136.6 mmol/L; HCO3^−, 27 mmol/L; PO4^3−, 0.4 mmol/L; glucose, 11.1 mmol/L; and heparin, 1000 IE) and submerged in a tissue bath. The superfusion fluid was kept at a stable temperature of 36.5° C. to 37.5° C. and oxygenized with a mixture of 95% O2 and 5% CO2 to maintain a pH of 7.4. LAAs were stimulated at 100 beats per minute at 2-3 times diastolic threshold with a pulse width of 2 ms using an epicardial electrode.
The effective refractory period was defined as the longest S1-S2 interval failing to produce atrial (ventricular) activation.

[8] = target: T2, Murine NK3 receptor; details: read-out: Binding (Inhibition of [125I]-[MePhe7]neurokinin B) Murine NK3 receptor, Ki; HEK 293-murine NK3 receptor cells; mean ± SEM; cited from earlier work
[9] = tested on: left atrium of Langendorff-perfused rabbit heart; experiment: Left atrial effective refractory period in Langendorff-perfused rabbit hearts; details: for Longest S1-S2 interval that fails to produce atrial activation (A-ERP): basic cycle length 200 ms; for Effect on atrial effective refractory period, in words / Prolongation of the S1-S2 interval measured in the left atrium: Langendorff-perfused rabbit heart; for Prolongation of the S1-S2 interval measured in the left atrium: difference to control
Experimental: as §1

[10] = tested on: rabbit ventricular myocytes; experiment: Action potential recording (perforated patch clamp) in rabbit ventricular myocytes; details: 2 Hz, 1-10 μM substance P or 100 nM Senktide
Experimental: as §2, §3, §4, §5, §6, §7, §8

[11] = target: T1, NK-3 receptor; details: cited from earlier work; remark: listed apart in the source
[12] = target: T1, NK-3 receptor; parameters: expressed in transfected cells; host or cells: HEK 293; details: read-out: Binding (Inhibition of [125I]-[MePhe7]neurokinin B) Human NK3 receptor, HEK 293-human NK3 receptor cells, mean ± SEM; cited from earlier work
[13] = target: T1, NK-3 receptor; parameters: expressed in transfected cells; host or cells: HEK 293; details: HEK 293-human NK3 receptor cells, mean ± SEM, read-out: Ca2+ Mobilization Human NK3 receptor; cited from earlier work
[14] = target: T3, NK2-receptor (Homo sapiens, UniProt P21452); details: cited from earlier work
T3 sequence (P21452 1-398): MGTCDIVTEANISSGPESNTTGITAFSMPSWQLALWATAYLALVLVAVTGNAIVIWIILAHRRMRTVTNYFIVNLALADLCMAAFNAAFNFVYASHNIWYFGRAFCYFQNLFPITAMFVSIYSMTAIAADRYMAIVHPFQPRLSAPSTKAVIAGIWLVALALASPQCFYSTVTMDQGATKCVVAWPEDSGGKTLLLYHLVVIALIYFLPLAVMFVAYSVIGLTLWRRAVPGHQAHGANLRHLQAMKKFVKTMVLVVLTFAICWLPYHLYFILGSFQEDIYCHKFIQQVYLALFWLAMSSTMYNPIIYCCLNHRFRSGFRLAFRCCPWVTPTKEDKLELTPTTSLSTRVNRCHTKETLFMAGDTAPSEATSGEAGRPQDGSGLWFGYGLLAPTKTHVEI

Chain of NK-1 receptor (P25103 whole entry, species assumed): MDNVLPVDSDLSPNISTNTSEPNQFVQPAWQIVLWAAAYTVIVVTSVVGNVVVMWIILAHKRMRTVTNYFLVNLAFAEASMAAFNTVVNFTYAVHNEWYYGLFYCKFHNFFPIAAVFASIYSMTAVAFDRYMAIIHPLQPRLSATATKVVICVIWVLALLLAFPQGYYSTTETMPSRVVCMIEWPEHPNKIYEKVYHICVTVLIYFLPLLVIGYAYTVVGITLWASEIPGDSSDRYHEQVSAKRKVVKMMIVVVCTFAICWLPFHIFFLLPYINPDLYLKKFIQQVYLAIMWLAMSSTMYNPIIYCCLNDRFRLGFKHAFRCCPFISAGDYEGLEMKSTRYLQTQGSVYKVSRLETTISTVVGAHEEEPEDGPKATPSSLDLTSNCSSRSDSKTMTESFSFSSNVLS

Compound: CC[C@H](C)[C@H](NC(=O)[C@H](Cc1ccccc1)NC(=O)[C@H](C)NC(=O)[C@H](CC(=O)O)NC(=O)[C@H](CCCCN)NC(=O)[C@H](CO)NC(=O)[C@@H]1CCCN1C(=O)[C@@H]1CCC(=O)N1)C(=O)NCC(=O)N[C@@H](CC(C)C)C(=O)N[C@@H](CCSC)C(N)=O [Eledoisin] (HELM PEPTIDE1{[Glp].P.S.K.D.A.F.I.G.L.M.[am]}$$$$V2.0)
- NK-1 receptor Affinity (pIC50) [1]: 8.6 pIC50
- NK-3 receptor Affinity (pIC50) [2]: 6.2-6.6 pIC50

Compound: CSCC[C@H](NC(=O)[C@H](CC(C)C)NC(=O)CNC(=O)[C@@H](NC(=O)[C@H](Cc1ccccc1)NC(=O)[C@H](CCC(N)=O)NC(=O)[C@H](CC(=O)O)NC(=O)[C@H](CO)NC(=O)[C@H](CCCCN)NC(=O)[C@@H]1CCCN1C(=O)[C@@H](NC(=O)[C@@H](N)CC(=O)O)C(C)C)C(C)C)C(N)=O [Kassinin] (H-DVPKSDQFVGLM-NH2)
- NK-1 receptor Affinity (pIC50) [1]: 6.6-7.1 pIC50
- NK-3 receptor Affinity (pIC50) [2]: 6.7-7.0 pIC50

Compound: CSCC[C@H](NC(=O)[C@H](CC(C)C)NC(=O)CNC(=O)[C@H](Cc1ccccc1)N(C)C(=O)[C@H](Cc1ccccc1)NC(=O)[C@H](CC(=O)O)NC(=O)CCC(=O)O)C(N)=O [Senktide, N-(3-carboxy-1-oxopropyl)-L-α-aspartyl-L-phenylalanyl-N-methyl-L-phenylalanylglycyl-L-leucyl-L-methioninamide] (HELM PEPTIDE1{[O=C(O)CCC(=O)[*:2]].D.F.[meF].G.L.M.[am]}$$$$V2.0)
- Effect on atrial action potential (AP) duration [3]: significantly prolongs the AP duration
- EC50 [4]: 0.15 ± 0.09 nM
- Longest S1-S2 interval that fails to produce atrial activation (A-ERP) in vivo [5]: 160 ms
- Effect on ventricular effective refractory period (V-ERP) [6]: not affected
- Longest S1-S2 interval that fails to produce atrial activation (ERP) in human LAA ([7]; 50 nM Senktide, control 290 ms): 440 ms
- Effective refractory period in human LAA after wash out ([7]; wash out after 50 nM Senktide): 320 ms
- Ki [8]: 11.9 ± 2.1 nM
- Longest S1-S2 interval that fails to produce atrial activation (A-ERP) ([9]; 750 nM Senktide, control 80 ms): 100 ms
- Effect on atrial effective refractory period, in words [9]: prolongs the atrial refractory period
- Prolongation of the S1-S2 interval measured in the left atrium [9]: 20 ms
- Effect on ventricular action potential (AP) duration [10]: absence of effect; also recorded: does not prolong the AP

Compound: Asp-Met-His-Asp-Phe-Phe-(Me)Phe-Gly-Leu-Met-NH2 (DMHDFFFGLM; HELM PEPTIDE1{D.M.H.D.F.F.[meF].G.L.M.[am]}$$$$V2.0; N-terminus assumed; SMILES CSCC[C@H](NC(=O)[C@H](CC(C)C)NC(=O)CNC(=O)[C@H](Cc1ccccc1)N(C)C(=O)[C@H](Cc1ccccc1)NC(=O)[C@H](Cc1ccccc1)NC(=O)[C@H](CC(=O)O)NC(=O)[C@H](Cc1c[nH]cn1)NC(=O)[C@H](CCSC)NC(=O)[C@@H](N)CC(=O)O)C(N)=O; listed as Homo sapiens) [[MePhe^7]neurokinin B]
- NK-3 receptor Affinity (pEC50) [11]: 8.9 pEC50
- Ki [12]: 1.8 ± 1 nM
- EC50 [4]: 0.26 ± 0.13 nM
- NK-3 receptor Affinity (pK1) [2]: 8.7-9.6 pK1
- EC50 [13]: 0.3 ± 0.1 nM
- Ki [8]: 0.6 ± 0.1 nM
- Longest S1-S2 interval that fails to produce atrial activation (A-ERP) ([9]; 20 nM (N-Me-Phe7)-NKB, control 75 ms): 105 ms
- Effect on atrial effective refractory period, in words [9]: prolongs the atrial effective refractory period
- Prolongation of the S1-S2 interval measured in the left atrium [9]: 30 ms

Compound: Neurokinin A: compound having CAS registry No. 86933-74-6
- NK-3 receptor Affinity (pEC50) [11]: 7.4 pEC50
- Ki [12]: 3300 ± 240 nM
- EC50 [4]: 0.82 ± 0.24 nM
- NK-3 receptor Affinity (pK1) [2]: 5.5-6.3 pK1
- EC50 [13]: 22 ± 4 nM
- Ki [8]: 785 ± 195 nM

Compound: Neurokinin B: natural NK3-receptor agonist, CAS registry No. 86933-75-7
- NK2-receptor Affinity (pK1) [14]: 5.0-7.7 pK1
- EC50 [4]: 0.09 ± 0.02 nM
- Ki [8]: 2.3 ± 0.3 nM

Compound: RSRTRQFYGLM [Hemokinin-1]
- NK2-receptor Affinity (pK1) [14]: 6.3 pK1
- NK-1 receptor Affinity (pK1) [1]: 9.8-11.7 pK1
- NK-3 receptor Affinity (pK1) [2]: 8.6-9.3 pK1

Compound: Substance P: agonist of multiple neurokinin receptors, CAS registry No. 33507-63-0
- Effect on atrial action potential (AP) duration [3]: significantly prolongs the AP duration
- EC50 [4]: 5.4 ± 2.4 nM
- Ki [8]: 4920 ± 2250 nM
- Effect on ventricular action potential (AP) duration [10]: does not prolong the AP
- Effect on ventricular action potential (AP) duration ([10]; listed as substance P): absence of effect

Compound: [Sar9, Met (O2)11]-Substance P
- Effect on atrial action potential (AP) duration [3]: absence of effect; also recorded: does not affect AP duration
